Assay results taken from patent US20240174690A1, “ANNULATED 2-AMINO-3-CYANO THIOPHENES AND DERIVATIVES FOR THE TREATMENT OF CANCER” (BOEHRINGER INGELHEIM INTERNATIONAL GMBH, priority 2021, published 2024).

Experiments:
[1] = target: KRAS (G12C)::SOS1 (Homo sapiens (Human), UniProt P01116, C118S/C51S/C80L/G12C); assay: KRAS::SOS1 AlphaScreen binding assay, KRAS G12C
Outline: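 KRAS 1-169 (biotinylated avi-tag) with GST-SOS1 564-1049 and 10 µM GDP in PBS/0.1% BSA/0.05% Tween 20: WT and G13D 10 nM each with 10 nM SOS1; G12D 10 nM and G12C 7.5 nM with 5 nM SOS1. After 30 min, glutathione acceptor/streptavidin donor beads were added for 60 min at RT in the dark, then AlphaScreen read; 4-parameter IC50.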

[2] = tested on: KRAS G12D-dependent Ba/F3 cells; assay: Ba/F3 proliferation assay, KRAS G12D; type: cell-based; settings: Mus musculus, BaF3, 72 h, AlamarBlue
Outline: (§1)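 IL-3-independent Ba/F3 lines driven by transduced KRAS G12C, G12D or G12V, with puromycin withdrawn about ten days before testing. Viability after compound treatment measured by AlamarBlue fluorescence in duplicate, and values derived by curve fitting.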

[3] = tested on: KRAS G12V-dependent Ba/F3 cells; assay: Ba/F3 proliferation assay, KRAS G12V; type: cell-based; settings: Mus musculus, BaF3, 72 h, AlamarBlue;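 further: proliferation IC50 in KRAS G12V-dependent Ba/F3 cells read by AlamarBlue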
Outline: as §1

[4] = tested on: SK-CO-1 cells; assay: SK-CO-1 CTG proliferation assay (120 h) (CRC, G12V); type: cell-based; settings: Homo sapiens; SK-CO-1 cells (CRC, G12V), CTG 120 h
Outline: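 Compound exposure lasted 120 h in KRAS G12V SK-CO-1 cells seeded overnight at 500 cells/well in 10% FCS EMEM. CellTiter-Glo RLU normalised to DMSO wells gave percent viability, and a four-parameter model fit yielded IC50.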

Sequence of KRAS (G12C)::SOS1 (P01116 other isoform, or with tags, fused parts or gaps G12C/C51S/C80L/C118S): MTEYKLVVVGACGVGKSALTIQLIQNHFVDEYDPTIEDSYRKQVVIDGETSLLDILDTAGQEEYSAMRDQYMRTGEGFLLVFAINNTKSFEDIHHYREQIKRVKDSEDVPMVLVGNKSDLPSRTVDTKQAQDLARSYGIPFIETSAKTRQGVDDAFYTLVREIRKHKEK

Row | Compound | IC50 [1] [nM] | IC50 [2] [nM] | IC50 [3] [nM] | IC50 [4] [nM]
1 | C[C@H](Oc1cc(-n2ccc(C(=O)N[C@H]3CCOC3)n2)nc(-c2onc3c2CCC[C@@]32CCCc3sc(N)c(C#N)c32)n1)[C@@H]1CCCN1C [I-57] | 2 | 8 | 1 | 4
2 | COCCNC(=O)c1ccn(-c2cc(O[C@@H](C)[C@@H]3CCCN3C)nc(-c3onc4c3CCC[C@@]43CCCc4sc(N)c(C#N)c43)n2)n1 [I-58] | 1 | 11 | 6 | 14
3 | C[C@H](NC(=O)c1ccn(-c2cc(O[C@@H](C)[C@@H]3CCCN3C)nc(-c3onc4c3CCC[C@@]43CCCc4sc(N)c(C#N)c43)n2)n1)c1ccccn1 [I-59] | 1 | 13 | 1 | 5
4 | C[C@H](Oc1cc(-n2ccc(C(=O)N(C)C3COC3)n2)nc(-c2onc3c2CCC[C@@]32CCCc3sc(N)c(C#N)c32)n1)[C@@H]1CCCN1C [I-60] | 1 | 22 | 4 | 21
5 | C[C@H](Oc1cc(N2CC(N(C)C)C2)nc(-c2noc3c2CCC[C@@]32CCCc3sc(N)c(C#N)c32)n1)[C@@H]1CCCN1C [II-7] | 5 | 94 | 196 | 1240
6 | C[C@H](Oc1cc(N2CCN(CCO)CC2)nc(-c2noc3c2CCC[C@@]32CCCc3sc(N)c(C#N)c32)n1)[C@@H]1CCCN1C [II-8] | 3 | 144 | 316 | 692
7 | C[C@H](Oc1cc(N2C[C@@H](N(C)C)[C@@H](O)C2)nc(-c2noc3c2CCC[C@@]32CCCc3sc(N)c(C#N)c32)n1)[C@@H]1CCCN1C [II-10] | 7 | 116 | 957 | 1660
8 | C[C@H](Oc1cc(N2C[C@@H](N(C)C)[C@@H](F)C2)nc(-c2noc3c2CCC[C@@]32CCCc3sc(N)c(C#N)c32)n1)[C@@H]1CCCN1C [II-11] | 6 | 85 | 324 | 800
9 | C[C@H](Oc1cc(N2CC[C@H](N3CCCCC3)C2)nc(-c2noc3c2CCC[C@@]32CCCc3sc(N)c(C#N)c32)n1)[C@@H]1CCCN1C [II-12] | 8 | 20 | 549 | 819
10 | C[C@H](Oc1cc(N2CCN(C)C3(COC3)C2)nc(-c2noc3c2CCC[C@@]32CCCc3sc(N)c(C#N)c32)n1)[C@@H]1CCCN1C [II-13] | 2 | 24 | 247 | 896
11 | C[C@H](Oc1cc(N2CC[C@H](N3CCCC3)C2)nc(-c2noc3c2CCC[C@@]32CCCc3sc(N)c(C#N)c32)n1)[C@@H]1CCCN1C [II-14] | 4 | 10 | 771 | 771
12 | C[C@H](Oc1cc(N2CC[C@H](N(C)C)C2)nc(-c2noc3c2CCC[C@@]32CCCc3sc(N)c(C#N)c32)n1)[C@@H]1C[C@@H](F)CN1C [II-15] | 7 | 14 | 340 | 1250
13 | C[C@H]1CN(C)CCCN1c1cc(N2CC[C@H](N(C)C)C2)nc(-c2noc3c2CCC[C@@]32CCCc3sc(N)c(C#N)c32)n1 [II-16] | 74 | 183 | 1640 | 1870
14 | C[C@@H]1CN(c2cc(O[C@@H](C)[C@@H]3C[C@@H](F)CN3C)nc(-c3noc4c3CCC[C@@]43CCCc4sc(N)c(C#N)c43)n2)CC2(CC2)N1 [II-17] | 3 | 39 | 422 | 617
15 | C[C@H](Oc1cc(N2C[C@H](C)NC3(CC3)C2)nc(-c2noc3c2CCC[C@@]32CCCc3sc(N)c(C#N)c32)n1)[C@@H]1C[C@@H](F)CN1C [II-18] | 3 | 20 | 438 | 444
16 | C[C@H](Oc1cc(-n2ccc(C(=O)N3CCCC3)n2)nc(-c2noc3c2CCC[C@@]32CCCc3sc(N)c(C#N)c32)n1)[C@@H]1CCCN1C [II-19] | 1 | 10 | 3 | 11
17 | CNC(=O)c1ccn(-c2cc(O[C@@H](C)[C@@H]3CCCN3C)nc(-c3noc4c3CCC[C@@]43CCCc4sc(N)c(C#N)c43)n2)n1 [II-20] | 1 | 16 | 2 | 9
18 | C[C@H](Oc1cc(-n2ccc(C(N)=O)n2)nc(-c2noc3c2CCC[C@@]32CCCc3sc(N)c(C#N)c32)n1)[C@@H]1CCCN1C [II-21] | 2 | 23 | 3 | 6
19 | CCOC(=O)c1ccn(-c2cc(O[C@@H](C)[C@@H]3CCCN3C)nc(-c3noc4c3CCC[C@@]43CCCc4sc(N)c(C#N)c43)n2)n1 [II-23] | 1 | 53 | 4 | 31

Row | Compound | IC50 [1] [nM] | IC50 [2] [nM] | IC50 [3] [nM] | IC50 [4] [nM]
20 | C[C@H](Oc1cc(-n2ccc(C(=O)O)n2)nc(-c2noc3c2CCC[C@@]32CCCc3sc(N)c(C#N)c32)n1)[C@@H]1CCCN1C [II-24] | 2 | > 25000 | 8110 | 9250
21 | C[C@H](Oc1cc(-n2ccc(C(=O)NC3COC3)n2)nc(-c2noc3c2CCC[C@@]32CCCc3sc(N)c(C#N)c32)n1)[C@@H]1CCCN1C [II-25] | 1 | 25 | 4 | 3
22 | C[C@H](Oc1cc(-n2ccc(C(=O)NC3(C)COC3)n2)nc(-c2noc3c2CCC[C@@]32CCCc3sc(N)c(C#N)c32)n1)[C@@H]1CCCN1C [II-26] | 1 | 37 | 3 | 3
23 | C[C@H](Oc1cc(-c2ccn(C)n2)nc(-c2noc3c2CCC[C@@]32CCCc3sc(N)c(C#N)c32)n1)[C@@H]1C[C@@H](F)CN1C [II-27] | 2 | 49 | 16 | 115
24 | C[C@H](Oc1cc(-c2cnn(C)n2)nc(-c2noc3c2CCC[C@@]32CCCc3sc(N)c(C#N)c32)n1)[C@@H]1C[C@@H](F)CN1C [II-28] | 7 | 90 | 27 | 433
25 | C[C@H](Oc1cc(N2CCNC3(COC3)C2)nc(-c2noc3c2CCC[C@@]32CCCc3sc(N)c(C#N)c32)n1)[C@@H]1CCCN1C [II-31] | 2 | 4 | 65 | 365
26 | C[C@H](Oc1cc(N2CCNC(C)(C)C2)nc(-c2noc3c2CCC[C@@]32CCCc3sc(N)c(C#N)c32)n1)[C@@H]1CCCN1C [II-32] | 2 | 3 | 1220 | 704
27 | C[C@H](Oc1cc(N2C[C@H]3CN(C)C[C@H]3C2)nc(-c2noc3c2CCC[C@@]32CCCc3sc(N)c(C#N)c32)n1)[C@@H]1CCCN1C [II-33] | 8 | 82 | 657 | 1050
28 | C[C@H](Oc1cc(N2CC3CCC(C2)N3)nc(-c2noc3c2CCC[C@@]32CCCc3sc(N)c(C#N)c32)n1)[C@@H]1CCCN1C [II-34] | 3 | 51 | 681 | 1240
29 | CN[C@H]1CCN(c2cc(O[C@@H](C)[C@@H]3CCCN3C)nc(-c3noc4c3CCC[C@@]43CCCc4sc(N)c(C#N)c43)n2)C1 [II-35] | 7 | 82 | 1680 | 5730
30 | C[C@@H]1CN(c2cc(O[C@@H](C)[C@@H]3CCCN3C)nc(-c3noc4c3CCC[C@@]43CCCc4sc(N)c(C#N)c43)n2)C[C@H](C)N1 [II-36] | 2 | 64 | 390 | 1120
31 | C[C@H](Oc1cc([C@@H]2CCN(C)C2)nc(-c2noc3c2CCC[C@@]32CCCc3sc(N)c(C#N)c32)n1)[C@@H]1CCCN1C [II-37] | 3 | 26 | 177 | 562
32 | C[C@H](Oc1cc([C@H]2CCN(C)C2)nc(-c2noc3c2CCC[C@@]32CCCc3sc(N)c(C#N)c32)n1)[C@@H]1CCCN1C [II-38] | 2 | 11 | 56 | 174
33 | C[C@H](Oc1cc(N2CCNC3(CCC3)C2)nc(-c2noc3c2CCC[C@@]32CCCc3sc(N)c(C#N)c32)n1)[C@@H]1CCCN1C [II-40] | 3 | 7 | 456 | 488
34 | C[C@H](Oc1cc(N2CCNC3(CCCC3)C2)nc(-c2noc3c2CCC[C@@]32CCCc3sc(N)c(C#N)c32)n1)[C@@H]1CCCN1C [II-41] | 9 | 26 | 980 | 910
35 | C[C@H](Oc1cc(-c2ccn([C@H]3CCCOC3)n2)nc(-c2noc3c2CCC[C@@]32CCCc3sc(N)c(C#N)c32)n1)[C@@H]1CCCN1C [II-42] | 2 | 26 | 5 | 38
36 | C[C@H](Oc1cc(-c2ccn(C[C@@H]3CCCO3)n2)nc(-c2noc3c2CCC[C@@]32CCCc3sc(N)c(C#N)c32)n1)[C@@H]1CCCN1C [II-43] | 1 | 34 | 8 | 46
37 | C[C@H](Oc1cc(C2CCCO2)nc(-c2noc3c2CCC[C@@]32CCCc3sc(N)c(C#N)c32)n1)[C@@H]1CCCN1C (stereo partly shown) [II-44] | 2 | 32 | 14 | 193
